Reference: the supplement of paper PMC10477900
Structures can show the parent of a compound that is named as a salt.

How the values were obtained:
HCT116 [1] = conditions: 72 h
Description: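 HCT116 control and MTA1-KO (CRISPR) HCT116 cells were seeded in 384-well plates (800 cells/well), treated 16 h later with 237 metabolism-related anticancer drugs at five doses (10 uM, 2 uM, 400 nM, 80 nM, 16 nM) for 72 h, two replicates; viability by CCK8. Values are % inhibition of viability relative to untreated cells, plus fitted IC50.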

HCT116 [2] = assay: viability inhibition vs untreated; higher = more cytotoxic; conditions: 72 h

| SMILES | IC50 (HCT116 [1]; genotype: MTA1-KO) | IC50 (HCT116 [1]; genotype: control) | viability inhibition (HCT116 [2]; genotype: MTA1-KO, 16 nM) | viability inhibition (HCT116 [2]; genotype: MTA1-KO, 80 nM) | viability inhibition (HCT116 [2]; genotype: MTA1-KO, 400 nM) | viability inhibition (HCT116 [2]; genotype: MTA1-KO, 2000 nM) | viability inhibition (HCT116 [2]; genotype: MTA1-KO, 10000 nM) | viability inhibition (HCT116 [2]; genotype: control, 16 nM) | viability inhibition (HCT116 [2]; genotype: control, 80 nM) | viability inhibition (HCT116 [2]; genotype: control, 400 nM) | viability inhibition (HCT116 [2]; genotype: control, 2000 nM) | viability inhibition (HCT116 [2]; genotype: control, 10000 nM) |
| --- | --- | --- | --- | --- | --- | --- | --- | --- | --- | --- | --- | --- |
| Cc1ccc(-c2cn3c4c(sc3n2)CCCC4)cc1 [Pifithrin-β hydrobromide] | > 10 µM | > 10 µM | -6.36% | -17.5% | -18.2% | -13.4% | 33% | -6.38% | -10.8% | -7.66% | 2.45% | -13.6% |
| O=C(C[C@H]1NCCC[C@@H]1O)Cn1cnc2cc(Br)c(Cl)cc2c1=O [Halofuginone hydrobromide] | 0.374 µM | 0.371 µM | 2.99% | -4.56% | 73.6% | 106% | 103% | -19.5% | -8.31% | 72.1% | 111% | 101% |
| CCC(C)(C)C(=O)O[C@H]1C[C@@H](C)C=C2C=C[C@H](C)[C@H](CC[C@@H]3C[C@@H](O)CC(=O)O3)[C@H]21 [Simvastatin] | > 10 µM | > 10 µM |  |  |  |  |  |  |  |  |  |  |
| O=C(Nc1ccc(O)cc1)c1ccccc1O [Osalmid] | > 10 µM | > 10 µM | -19.6% | -14.3% | -16% | -6.29% | -7.75% | -15.5% | -18.3% | -10.9% | -10.7% | 5% |
| Cc1nc(-c2nc(-c3ccc(OC(F)(F)F)cc3)no2)nn1Cc1cccc(N2CCC(S(C)(=O)=O)CC2)c1 | > 10 µM | > 10 µM | 1.35% | 25% | 26.2% | 29.9% | 45.9% | 13.9% | 17.5% | 21.8% | 14.5% | 23.9% |
| NCCCCN=C(N)N [Agmatine sulfate salt] | 8.87 µM | > 10 µM | -2.78% | 3.53% | 1.54% | 7.76% | 55.4% | 11.2% | 9.12% | 22.6% | 28.6% | 22.5% |
| Nc1nc2[nH]cc(CCc3ccc(C(=O)N[C@@H](CCC(=O)O)C(=O)O)cc3)c2c(=O)[nH]1 [Pemetrexed disodium] | > 10 µM | 1.18 µM | -3.16% | 1.56% | 17.8% | 28.6% | 32.9% | 21.1% | 13.2% | 10.5% | 70.6% | 69.4% |
| CO[C@H]1C[C@@H]2CC[C@@H](C)[C@@](O)(O2)C(=O)C(=O)N2CCCC[C@H]2C(=O)O[C@H]([C@H](C)C[C@@H]2CC[C@@H](O)[C@H](OC)C2)CC(=O)[C@H](C)/C=C(\C)[C@@H](O)[C@@H](OC)C(=O)[C@H](C)C[C@H](C)/C=C/C=C/C=C/1C [Rapamycin] | > 10 µM | > 10 µM | 4.81% | 4.98% | 3.36% | 17.6% | 18.4% | -3% | -2.75% | 2.91% | 0.723% | 24.6% |
| CO[C@@H](C)Cn1c(=O)n(C)c2cnc3ccc(-c4cncc(C(C)(C)O)c4)cc3c21 | 0.289 µM | 0.382 µM | -8.01% | 27.7% | 58.8% | 90.6% | 102% | -0.225% | -9.63% | 58.5% | 90.9% | 104% |
| O=[N+]([O-])c1ccc(Nc2ccccc2-c2ccccc2)c2nonc12 | 8.18 µM | > 10 µM | 2.01% | -8.53% | -10.8% | -6.96% | 68.6% | 9.25% | 24.7% | 13.3% | 14.3% | 23.9% |
| O=C1c2cccc(O)c2C(=O)c2c(O)cccc21 [Antrapurol] | > 10 µM | > 10 µM | 7.43% | -5.62% | -8.24% | -0.432% | 0.85% | 1.11% | -7.37% | -11.3% | -10.5% | 29.6% |
| Nc1ccc(/C=C/C(=O)NCc2cc3cc(-c4ccc(C(=O)N5CCC(F)(F)CC5)cc4)cc(-c4ccc(F)cc4)c3o2)cn1 [KPT9274] | > 10 µM | > 10 µM | -17.2% | -10% | -24% | -17.1% | 8.44% | 15.8% | -9.31% | 7.28% | 14.9% | 13.4% |
| N#CNC(=NCCCCCCOc1ccc(Cl)cc1)Nc1ccncc1 [CHS 828] | 0.535 µM | 1.85 µM | -0.922% | -1.84% | 18.8% | 41.1% | 49% | -11.1% | 18.5% | 30.7% | 59.8% | 79.4% |
| CC[C@H](C)C(=O)O[C@H]1CCC=C2C=C[C@H](C)[C@H](CC[C@@H]3C[C@@H](O)CC(=O)O3)[C@H]21 [Mevastatin] | > 10 µM | > 10 µM | -20.4% | -7.46% | -17.3% | -17.5% | -22.4% | -7.08% | 9.09% | 5.14% | 1.68% | 23.8% |
